This passage reports IC50 and CC50 results from ChEMBL document CHEMBL5528070, “Design and Synthesis of Dual-Target Inhibitors Targeting Androgen Receptors and Glucocorticoid Receptors to Overcome Antiandrogen Resistance in Castration-Resistant Prostate Cancer” (J Med Chem, 2024).

Some results are limits rather than exact numbers.

In data set [1] the target is T1, Androgen receptor (Homo sapiens, UniProt P10275).
T1 sequence (P10275 whole entry): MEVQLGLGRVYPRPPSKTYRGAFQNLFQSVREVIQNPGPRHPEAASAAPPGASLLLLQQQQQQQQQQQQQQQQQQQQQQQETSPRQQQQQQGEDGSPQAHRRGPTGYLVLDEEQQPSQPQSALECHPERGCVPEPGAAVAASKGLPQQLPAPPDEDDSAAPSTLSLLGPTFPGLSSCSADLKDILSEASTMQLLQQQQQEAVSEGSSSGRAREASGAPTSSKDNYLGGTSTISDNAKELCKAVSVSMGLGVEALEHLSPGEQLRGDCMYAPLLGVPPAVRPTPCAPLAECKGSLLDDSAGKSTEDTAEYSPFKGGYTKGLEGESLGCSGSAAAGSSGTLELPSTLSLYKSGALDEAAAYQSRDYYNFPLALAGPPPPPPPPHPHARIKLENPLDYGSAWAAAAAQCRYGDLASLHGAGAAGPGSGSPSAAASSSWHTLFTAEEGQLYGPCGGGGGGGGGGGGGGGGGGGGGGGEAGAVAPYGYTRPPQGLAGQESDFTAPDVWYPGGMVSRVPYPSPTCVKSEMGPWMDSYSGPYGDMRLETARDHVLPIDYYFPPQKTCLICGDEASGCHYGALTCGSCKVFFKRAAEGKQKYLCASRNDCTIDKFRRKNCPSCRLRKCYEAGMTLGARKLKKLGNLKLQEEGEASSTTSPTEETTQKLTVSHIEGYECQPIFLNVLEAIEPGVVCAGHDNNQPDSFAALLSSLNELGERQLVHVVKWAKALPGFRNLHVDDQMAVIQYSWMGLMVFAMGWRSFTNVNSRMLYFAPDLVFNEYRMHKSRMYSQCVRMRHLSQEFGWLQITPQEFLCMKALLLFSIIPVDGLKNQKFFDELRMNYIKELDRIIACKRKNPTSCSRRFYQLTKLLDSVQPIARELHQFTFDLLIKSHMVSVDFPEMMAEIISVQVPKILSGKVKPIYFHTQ

For data set [2], the target named is T1, Androgen receptor. Nature of the data set: Antagonist activity at androgen receptor in human LNCaP cells incubated for 24 hrs by luminescence based firefly luciferase assay.
In data set [3] the target is T2, Glucocorticoid receptor (Homo sapiens, UniProt P04150).
T2 sequence (P04150 whole entry): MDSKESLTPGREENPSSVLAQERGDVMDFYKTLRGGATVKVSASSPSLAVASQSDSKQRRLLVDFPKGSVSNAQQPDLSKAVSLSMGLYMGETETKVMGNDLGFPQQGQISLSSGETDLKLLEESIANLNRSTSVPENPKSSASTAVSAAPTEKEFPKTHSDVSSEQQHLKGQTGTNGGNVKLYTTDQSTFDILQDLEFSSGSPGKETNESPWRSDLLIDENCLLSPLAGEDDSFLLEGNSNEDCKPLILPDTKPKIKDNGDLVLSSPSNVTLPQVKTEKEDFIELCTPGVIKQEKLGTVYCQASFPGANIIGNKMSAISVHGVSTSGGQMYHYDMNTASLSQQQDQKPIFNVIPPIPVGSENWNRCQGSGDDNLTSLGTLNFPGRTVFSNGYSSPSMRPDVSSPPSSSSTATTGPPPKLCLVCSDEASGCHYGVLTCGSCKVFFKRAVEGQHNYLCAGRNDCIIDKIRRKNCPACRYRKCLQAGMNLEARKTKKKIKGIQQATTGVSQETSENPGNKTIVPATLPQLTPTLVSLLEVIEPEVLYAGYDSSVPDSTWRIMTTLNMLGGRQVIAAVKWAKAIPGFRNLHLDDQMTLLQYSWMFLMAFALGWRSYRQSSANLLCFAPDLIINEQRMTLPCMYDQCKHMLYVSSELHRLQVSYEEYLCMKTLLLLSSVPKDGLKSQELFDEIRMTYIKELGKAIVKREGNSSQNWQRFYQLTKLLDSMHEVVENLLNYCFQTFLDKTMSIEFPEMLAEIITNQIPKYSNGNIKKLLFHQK
Description: (§1) Inhibition of glucocorticoid receptor transcription in human PC-3 cells cotransfected with MMTV-luc and renilla plasmid at incubated for 24 hrs by Dual luciferase assay

The next data set concerns CWR22R. Nature of the data set: Antiproliferative activity against human 22Rv1 cells assessed as reduction in cell viability measured after 72 hrs by CCK-8 method. The following applies: 22Rv1, 72 h.
In the next data set the test system is LNCaP. The data set is described as follows: Antiproliferative activity against human LNCaP cells assessed as reduction in cell viability measured after 72 hrs by CCK-8 method.
Data set [4] is described as follows: Antiproliferative activity against African green monkey COS-7 cells assessed as reduction in cell viability measured after 72 hrs by CCK-8 method. The following applies: chlorocebus aethiops. A general note: Tetrazolium assays rely on reduction of a dye to a coloured formazan, in cell work by metabolically active cells.
In the next data set the test system is DU-145. Nature of the data set: Antiproliferative activity against human DU-145 cells assessed as reduction in cell viability measured after 72 hrs by CCK-8 method. The note with it: DU-145, 72 h.
A further data set has as its system PC-3. The data set is described as follows: Antiproliferative activity against human PC-3 cells assessed as reduction in cell viability measured after 72 hrs by CCK-8 method. The following applies: PC-3, 72 h.
The next data set relates to LNCaP C4-2. Nature of the data set: Antiproliferative activity against human C4-2 cells assessed as reduction in cell viability measured after 72 hrs by CCK-8 method. The following applies: LNCaP C4-2, 72 h.
Data set [5] concerns the target T2, Glucocorticoid receptor. The following applies: pc-3.
Description: as §1

Turning to `CCOC(=O)c1ccc(NC(=O)c2cccc(S(=O)(=O)N3CCCc4ccccc43)c2)s1`, it took 1.7 µM to reach half-maximal inhibition on Androgen receptor [1] (IC50).
On to `CCc1cccc(NS(=O)(=O)c2cc3c4c(c2)CCC(=O)N4CCC3)c1`, for which, on Androgen receptor [2], the IC50 (as a rule, the midpoint of a concentration-inhibition curve) is 0.394 µM.
The compound `CCOC(=O)c1ccc(NC(=O)c2ccc(S(=O)(=O)Nc3ccc(C)cc3)cc2)s1` had an IC50 on Androgen receptor [1] of 0.12 µM.
On to `O=C(Nc1ccc(C(=O)NC2CC2)s1)c1cccc(S(=O)(=O)N2CCCc3ccccc32)c1`, for which, on Androgen receptor [1], the midpoint of inhibition, the IC50, lay at 0.2 µM.
At Glucocorticoid receptor [3], `CCOC(=O)c1ccc(NC(=O)c2cccc(S(=O)(=O)Nc3ccc4ccccc4c3)c2)s1` registered an IC50 of over 5 µM.
In turn, `Cc1ccc(NC(=O)c2ccc(NC(=O)c3ccc(S(=O)(=O)N4CCCc5ccccc54)cc3)s2)cc1` yielded a 50% inhibitory concentration (IC50) at Androgen receptor [1] of over 5 µM.
Consider `O=C(Nc1ccc(C(=O)NC23C[C@H]4C[C@H](C2)C[C@@H](C3)C4)s1)c1cccc(S(=O)(=O)N2CCCc3ccccc32)c1`, for which, on Androgen receptor [1], it took 0.12 µM to reach half-maximal inhibition (IC50).
As to `CNC(=O)c1ccc(N2C(=S)N(c3cnc(C#N)c(C(F)(F)F)c3)C(=O)C23CCC3)cc1F` [APALUTAMIDE], the CC50 (commonly the concentration that lowers cell viability or growth by half) in the data set with CWR22R is over 50 µM; in the data set on LNCaP it was 9.72 µM; in the data set on DU-145, over 50 µM; in the data set with PC-3, over 50 µM; with LNCaP C4-2, 41.7 µM. Further, the CC50 at 72 h in data set [4] was over 50 µM.
On to `CC(O)c1cc(C(=O)N[C@@H](C)Cn2ccc(-c3ccc(C#N)c(Cl)c3)n2)n[nH]1` (stereo not given in full) [DAROLUTAMIDE], for which the CC50 with CWR22R is over 50 µM; in the data set with LNCaP, 7.04 µM; in the data set on DU-145 it was over 50 µM; in the data set with PC-3, over 50 µM; in the data set on LNCaP C4-2 it was 18.8 µM. Besides, the CC50 at 72 h in [4] is over 50 µM.
`CNC(=O)c1ccc(N2C(=S)N(c3ccc(C#N)c(C(F)(F)F)c3)C(=O)C2(C)C)cc1F` [ENZALUTAMIDE]: the IC50 result against Glucocorticoid receptor [5] is on record as “Not Active”.
